Measurements from PMC8445441, “Elucidating the mechanism by which synthetic helper peptides sensitize Pseudomonas aeruginosa to multiple antibiotics” (PLoS Pathogens, 2021).
Where two headings read alike, the source gives them in different places.

Experiments:
[1] = system: clinical P. aeruginosa isolates; assay: microbe, parasite or virus in culture; details: Pseudomonas aeruginosa, 18 h, antibiotic alone
Procedure, shortened: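 MIC is the lowest drug concentration showing no visible growth after 18 h at 37 °C. Two-fold dilutions in MHB were combined with an equal volume of bacterial suspension (about 1 × 10^6 CFU/mL), following CLSI broth microdilution, in triplicate.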

[2] = system: P. aeruginosa AUMC-Pa-6; assay: microbe, parasite or virus in culture; details: for MIC: Pseudomonas aeruginosa, AUMCPA6, 18 h, read-out: MICa: MIC of the antibiotic; for FICI / MICac: MIC of the antibiotic in the combination: strain AUMC-Pa-6; for FICI: antibiotic + D-11 (MICb/MICbc 64/4); for MICac: MIC of the antibiotic in the combination: with D-11 at MICbc 4, unit not given
Procedure, shortened: (§1)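 CLSI broth dilution; MHB; ~1 × 10^6 CFU/mL suspension mixed equal volume with drug; 37 °C for 18 h; visual read; triplicate. Broth sometimes supplemented with PG, PE, PC, CL, LPS, MgCl2, CaCl2 or PAβN.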

[3] = system: P. aeruginosa AUMC-Pa-5; assay: microbe, parasite or virus in culture; details: for MIC: Pseudomonas aeruginosa, AUMCPA5, 18 h, read-out: MICa: MIC of the antibiotic; for FICI / MICac: MIC of the antibiotic in the combination: strain AUMC-Pa-5; for FICI: antibiotic + D-11 (MICb/MICbc 64/4); for MICac: MIC of the antibiotic in the combination: with D-11 at MICbc 4, unit not given
Procedure, shortened: as §1

[4] = system: P. aeruginosa AUMC-Pa-3; assay: microbe, parasite or virus in culture; details: for MIC: Pseudomonas aeruginosa, AUMCPA3, 18 h, read-out: MICa: MIC of the antibiotic; for FICI / MICac: MIC of the antibiotic in the combination: strain AUMC-Pa-3; for FICI: antibiotic + D-11 (MICb/MICbc 128/4); for MICac: MIC of the antibiotic in the combination: with D-11 at MICbc 4, unit not given
Procedure, shortened: as §1

[5] = system: P. aeruginosa PAO1; assay: microbe, parasite or virus in culture; details: PAO1; for MIC: Pseudomonas aeruginosa, PAO1, 18 h, read-out: MICa: the MIC of antibiotics, S3 Table, antibiotic alone; for FICI / MICac: the MIC for the antibiotic in the combination: S3 Table
Procedure, shortened: as §1

[6] = system: P. aeruginosa AUMC-Pa-4; assay: microbe, parasite or virus in culture; details: for MIC: Pseudomonas aeruginosa, AUMCPA4, 18 h, read-out: MICa: MIC of the antibiotic; for FICI / MICac: MIC of the antibiotic in the combination: strain AUMC-Pa-4; for FICI: antibiotic + D-11 (MICb/MICbc 128/4); for MICac: MIC of the antibiotic in the combination: with D-11 at MICbc 4, unit not given
Procedure, shortened: as §1

[7] = system: P. aeruginosa HM-214; details: strain HM-214; antibiotic + D-11 (MICb/MICbc 128/4)
Procedure, shortened: as §1

[8] = system: P. aeruginosa PAK; assay: microbe, parasite or virus in culture; set-up: MICa: MIC of the antibiotic / MICac: MIC of the antibiotic in the combination: unit not given beside the values; details: for MIC: Pseudomonas aeruginosa, 18 h, read-out: MICa: MIC of the antibiotic; for FICI / MICac: MIC of the antibiotic in the combination: strain PAK; for FICI: antibiotic + D-11 (MICb/MICbc 64/4); for MICac: MIC of the antibiotic in the combination: with D-11 at MICbc 4, unit not given
Procedure, shortened: as §1

[9] = system: P. aeruginosa NR-31040; assay: microbe, parasite or virus in culture; set-up: MICa: MIC of the antibiotic / MICac: MIC of the antibiotic in the combination: unit not given beside the values; details: for MIC: Pseudomonas aeruginosa, NR31040, 18 h, read-out: MICa: MIC of the antibiotic; for FICI / MICac: MIC of the antibiotic in the combination: strain NR-31040; for FICI: antibiotic + D-11 (MICb/MICbc 128/4); for MICac: MIC of the antibiotic in the combination: with D-11 at MICbc 4, unit not given
Procedure, shortened: as §1

[10] = system: P. aeruginosa NR-31041; assay: microbe, parasite or virus in culture; set-up: MICa: MIC of the antibiotic / MICac: MIC of the antibiotic in the combination: unit not given beside the values; details: for MIC: Pseudomonas aeruginosa, NR31041, 18 h, read-out: MICa: MIC of the antibiotic; for FICI / MICac: MIC of the antibiotic in the combination: strain NR-31041; for FICI: antibiotic + D-11 (MICb/MICbc 64/4); for MICac: MIC of the antibiotic in the combination: with D-11 at MICbc 4, unit not given
Procedure, shortened: as §1

[11] = system: P. aeruginosa PA14; assay: microbe, parasite or virus in culture; set-up: MICa: MIC of the antibiotic / MICac: MIC of the antibiotic in the combination: unit not given beside the values; details: for MIC: Pseudomonas aeruginosa, PA14, 18 h, read-out: MICa: MIC of the antibiotic; for FICI / MICac: MIC of the antibiotic in the combination: strain PA14; for FICI: antibiotic + D-11 (MICb/MICbc 128/4); for MICac: MIC of the antibiotic in the combination: with D-11 at MICbc 4, unit not given
Procedure, shortened: as §1

[12] = system: P. aeruginosa ATCC27853; assay: microbe, parasite or virus in culture; set-up: MICa: MIC of the antibiotic / MICac: MIC of the antibiotic in the combination: unit not given beside the values; details: for MIC: Pseudomonas aeruginosa, ATCC27853, 18 h, read-out: MICa: MIC of the antibiotic; for FICI / MICac: MIC of the antibiotic in the combination: strain ATCC27853; for FICI: antibiotic + D-11 (MICb/MICbc 32/4); for MICac: MIC of the antibiotic in the combination: with D-11 at MICbc 4, unit not given
Procedure, shortened: as §1

[13] = system: P. aeruginosa AUMC-Pa-2; details: strain AUMC-Pa-2; antibiotic + D-11 (MICb/MICbc 64/4)
Procedure, shortened: as §1

[14] = system: P. aeruginosa AUMC-Pa-1; details: strain AUMC-Pa-1; antibiotic + D-11 (MICb/MICbc 128/4)
Procedure, shortened: as §1

[15] = read-out: Antibiotic sensibility (MIC) of clinical P. aeruginosa isolate AUMC-Pa-1, strain AUMC-Pa-1
[16] = read-out: Antibiotic sensibility (MIC) of clinical P. aeruginosa isolate AUMC-Pa-2, strain AUMC-Pa-2
[17] = read-out: Antibiotic sensibility (MIC) of clinical P. aeruginosa isolate AUMC-Pa-3, strain AUMC-Pa-3
[18] = read-out: Antibiotic sensibility (MIC) of clinical P. aeruginosa isolate AUMC-Pa-4, strain AUMC-Pa-4
[19] = read-out: Antibiotic sensibility (MIC) of clinical P. aeruginosa isolate AUMC-Pa-5, strain AUMC-Pa-5
[20] = read-out: Antibiotic sensibility (MIC) of clinical P. aeruginosa isolate AUMC-Pa-6, strain AUMC-Pa-6
[21] = read-out: Antibiotic sensibility (MIC) of clinical P. aeruginosa isolate HM-214, strain HM-214
[22] = read-out: Antibiotic sensibility (MIC) of clinical P. aeruginosa isolate NR-31040, strain NR-31040
[23] = read-out: Antibiotic sensibility (MIC) of clinical P. aeruginosa isolate NR-31041, strain NR-31041

CCn1cc(C(=O)O)c(=O)c2ccc(C)nc21 [Nalidixic Acid]
MIC [1, 15]: > 128 µM
MIC [1, 16]: > 128 µM
MIC [1, 17]: > 128 µM
MIC [1, 18]: > 128 µM
MIC [1, 19]: > 128 µM
MIC [1, 20]: > 128 µM
MIC [1, 21]: > 128 µM
MIC [1, 22]: > 128 µM
MIC [1, 23]: > 128 µM
MIC [2]: > 128 µM
FICI [2]: 0.188
MICac: MIC of the antibiotic in the combination [2]: 32
MIC [3]: > 128 µM
FICI [3]: 1.063
MICac: MIC of the antibiotic in the combination [3]: >128/>128
MIC [4]: > 128 µM
FICI [4]: 0.063
MICac: MIC of the antibiotic in the combination [4]: 8
MIC [5]: > 128 µM
FICI ([5]; antibiotic + 2 μM D-11): 0.094
FICI ([5]; antibiotic + 4 μM D-11): 0.141
MICac: the MIC for the antibiotic in the combination ([5]; with 2 μM D-11): 8 µM
MICac: the MIC for the antibiotic in the combination ([5]; with 4 μM D-11): 4 µM
MIC [6]: > 128 µM
FICI [6]: 0.531
MICac: MIC of the antibiotic in the combination [6]: >128/128
FICI [7]: 0.531
MIC [8]: > 128 µM
FICI [8]: 0.125
MICac: MIC of the antibiotic in the combination [8]: 16
MIC [9]: > 128 µM
FICI [9]: 0.063
MICac: MIC of the antibiotic in the combination [9]: 8
MIC [10]: > 128 µM
FICI [10]: 0.125
MICac: MIC of the antibiotic in the combination [10]: 16
MIC [11]: > 128 µM
FICI [11]: 0.094
MICac: MIC of the antibiotic in the combination [11]: 16
MIC [12]: > 128 µM
FICI [12]: 0.156
MICac: MIC of the antibiotic in the combination [12]: 8
FICI [13]: 0.188
FICI [14]: 0.531

CO[C@@H]1[C@@H](OC(N)=O)[C@@H](O)[C@H](Oc2ccc3c(O)c(NC(=O)c4ccc(O)c(CC=C(C)C)c4)c(=O)oc3c2C)OC1(C)C [Novobiocin]
MIC [1, 15]: > 128 µM
MIC [1, 16]: > 128 µM
MIC [1, 17]: > 128 µM
MIC [1, 18]: > 128 µM
MIC [1, 19]: > 128 µM
MIC [1, 20]: > 128 µM
MIC [1, 21]: > 128 µM
MIC [1, 22]: > 128 µM
MIC [1, 23]: > 128 µM
MIC [2]: > 128 µM
FICI [2]: 0.563
MICac: MIC of the antibiotic in the combination [2]: >128/128
MIC [3]: > 128 µM
FICI [3]: 0.563
MICac: MIC of the antibiotic in the combination [3]: >128/128
MIC [4]: > 128 µM
FICI [4]: 0.033
MICac: MIC of the antibiotic in the combination [4]: 0.5
reduction of the MICs ([5]; in the presence of 4 μM of D-11): 512 fold
MIC [5]: > 128 µM
FICI ([5]; antibiotic + 2 μM D-11): 0.064
MICac: the MIC for the antibiotic in the combination ([5]; with 2 μM D-11): 0.5 µM
MICac: the MIC for the antibiotic in the combination ([5]; with 4 μM D-11): 0.5 µM
MIC [6]: > 128 µM
FICI [6]: 0.531
MICac: MIC of the antibiotic in the combination [6]: >128/128
FICI [7]: 0.531
MIC [8]: > 128 µM
FICI [8]: 0.070
MICac: MIC of the antibiotic in the combination [8]: 2
MIC [9]: > 128 µM
FICI [9]: 0.281
MICac: MIC of the antibiotic in the combination [9]: 64
MIC [10]: > 128 µM
FICI [10]: 0.078
MICac: MIC of the antibiotic in the combination [10]: 4
MIC [11]: > 128 µM
FICI [11]: 0.063
MICac: MIC of the antibiotic in the combination [11]: 8
MIC [12]: > 128 µM
FICI [12]: 0.133
MICac: MIC of the antibiotic in the combination [12]: 2
FICI [13]: 0.070
FICI [14]: 0.035
